Experimental data taken from patent US20080275023A1, “N-Hydroxyamides Omege-Substituted with Tricyclic Groups as Histone Deacetylase Inhibitors, Their Preparation and Use in Pharmaceutical Formulations” (priority 2005, published 2008).

What was measured:
[1] = tested on: histone deacetylase (HDAC), HeLa nuclear extract; test: Deacetylase activity on nuclear extract of HeLa cells (Fluor de Lys kit); type: biochemical, human; details: 0.1 μM compound, percent inhibition relative to control without inhibitor
Protocol: The activity of the compounds as histone deacetylase (HDAC) inhibitors was measured using an in vitro acetylation assay. The compounds were then evaluated as inhibitors of proliferation of human tumor cell cultures.
Deacetylase Activity on Nuclear Extract of Hela Cells (Human Cervical Cancer Cell)
The assay (Fluor de Lys™ kit, BioMol) is divided into two steps: in the first step the substrate which comprises an acetylated lysine residue is reacted with the nuclear extract (HeLa) containing the enzymatic activity in the presence and absence of inhibitors. In the second step a fluorogenic reagent is added which highlights the deacetylated residues. A reduction in fluorescence is obtained where there has been inhibition of the deacetylase activity.

[2] = tested on: HCT-116 human colon carcinoma cells; test: Cytotoxic activity on culture of human colon carcinoma cells HCT-116 (Alamar Blue); type: cell-based; details: HCT-116 cells, 72 hours after addition of compounds, Alamar Blue viability
Protocol: Evaluation of Cytotoxic Activity on Culture of Human Colon Carcinoma Cells HCT-116
Human colon carcinoma cells HCT-116 were seeded onto 96-well plates in RPMI1640 culture medium with added 10% FBS and 2 mM glutamine. 24 hours after seeding, the compounds at different concentrations are added. All the compounds are diluted in DMSO such that the final concentrations on the cultures is no greater than 0.5%. 72 hours after addition of the compounds, cell viability is measured by means of the dye Alamar Blue. The result is expressed as percent survival of the treated relative to the control, treated with carrier alone.

O=C(CCCCCN1c2cc(F)ccc2Nc2ccccc2S1(=O)=O)NO [Example 25, 6-(2-Fluoro-10,10-dioxo-5,10-dihydro-10λ^6-thia-5,11-diaza-dibenzo[a,d]cyclohepten-11-yl)-hexanoic acid hydroxyamide]
% inhib at 0.1 μM [1]: 42%
IC50 [2]: 1500 nM

O=C(CCCCCN1c2ccccc2Oc2ccccc2S1(=O)=O)NO [Example 23, 6-(10,10-Dioxo-10H-5-oxa-10λ^6-thia-11-aza-dibenzo[a,d]cyclohepten-11-yl)-hexanoic acid hydroxyamide]
% inhib at 0.1 μM [1]: 48%
IC50 [2]: 190 nM

COc1ccc2c(c1)Nc1ccccc1S(=O)(=O)N2CCCCCC(=O)NO [Example 21, 6-(3-Methoxy-10,10-dioxo-5,10-dihydro-10λ^6-thia-5,11-diaza-dibenzo[a,d]cyclohepten-11-yl)-hexanoic acid hydroxyamide]
IC50 [2]: 290 nM

O=C(CCCCCCN1C(=O)c2ccccc2Oc2ccccc21)NO [Example 15, 7-(11-Oxo-11H-dibenzo[b,f][1,4]oxazepin-10-yl)-heptanoic acid hydroxyamide]
% inhib at 0.1 μM [1]: 62%
IC50 [2]: 200 nM

CN(C)c1ccc2c(c1)S(=O)(=O)N(CCCCCC(=O)NO)c1ccc(O)cc1N2 [Example 26, 6-(8-Dimethylamino-3-hydroxy-10,10-dioxo-5,10-dihydro-10λ^6-thia-5,11-diaza-dibenzo[a,d]cyclohepten-11-yl)-hexanoic acid hydroxyamide]
% inhib at 0.1 μM [1]: 66%
IC50 [2]: 1000 nM

O=C(CCCCCN1C(=O)c2cscc2Nc2cc(Cl)c(Cl)cc21)NO [Example 17, 6-(6,7-Dichloro-10-oxo-4H,10H-2-thia-4,9-diaza-benzo[f]azulen-9-yl)-hexanoic acid hydroxyamide]
IC50 [2]: 800 nM

COc1ccc2c(c1)N(CCCCCC(=O)NO)C(=O)c1ccccc1[S+]2[O-] (stereo not shown) [Example 11, 6-(8-Methoxy-5,11-dioxo-5,11-dihydro-5λ^4-dibenzo[b,f][1,4]thiazepin-10-yl)-hexanoic acid hydroxyamide]
% inhib at 0.1 μM [1]: 73%
IC50 [2]: 50 nM

O=C(CCCCCN1C(=O)c2ccccc2S(=O)(=O)c2ccc(Cl)cc21)NO [Example 10, 6-(8-Chloro-5,5,11-trioxo-5,11-dihydro-5λ^6-dibenzo[b,f][1,4]thiazepin-10-yl)-hexanoic acid hydroxyamide]
% inhib at 0.1 μM [1]: 77%
IC50 [2]: 30 nM

CN(C)c1ccc2c(c1)S(=O)(=O)N(CCCCCC(=O)NO)c1ccccc1N2 [Example 20, 6-(8-Dimethylamino-10,10-dioxo-5,10-dihydro-10λ^6-thia-5,11-diaza-dibenzo[a,d]cyclohepten-11-yl)-hexanoic acid hydroxyamide]
% inhib at 0.1 μM [1]: 40%
IC50 [2]: 390 nM

O=C(CCCCCN1C(=O)c2ccccc2Oc2ccc(Cl)cc21)NO [Example 14, 6-(8-Chloro-11-oxo-11H-dibenzo[b,f][1,4]oxazepin-10-yl)-hexanoic acid hydroxyamide]
% inhib at 0.1 μM [1]: 65%
IC50 [2]: 200 nM

O=C(CCCCCN1C(=O)c2ccccc2S(=O)(=O)c2ccccc21)NO [Example 8, 6-(5,5,11-Trioxo-5,11-dihydro-5λ^6-dibenzo[b,f][1,4]thiazepin-10-yl)-hexanoic acid hydroxyamide]
% inhib at 0.1 μM [1]: 73%
IC50 [2]: 105 nM

O=C(CCCCCN1C(=O)c2ccccc2Oc2ccccc21)NO [Example 12, 6-(11-Oxo-11H-dibenzo[b,f][1,4]oxazepin-10-yl)-hexanoic acid hydroxyamide]
% inhib at 0.1 μM [1]: 66%
IC50 [2]: 640 nM

Nc1cccc2c1Nc1ccccc1S(=O)(=O)N2CCCCCC(=O)NO [Example 32, 6-(4-Amino-10,10-dioxo-5,10-dihydro-10λ^6-thia-5,11-diaza-dibenzo[a,d]cyclohepten-11-yl)-hexanoic acid hydroxyamide]
% inhib at 0.1 μM [1]: 47%
IC50 [2]: 2000 nM

COc1ccc2c(c1)Nc1ccc(N(C)C)cc1S(=O)(=O)N2CCCCCC(=O)NO [Example 27, 6-(8-Dimethylamino-3-methoxy-10,10-dioxo-5,10-dihydro-10λ^6-thia-5,11-diaza-dibenzo[a,d]cyclohepten-11-yl)-hexanoic acid hydroxyamide]
% inhib at 0.1 μM [1]: 63%
IC50 [2]: 400 nM

COc1ccc2c(c1)N(CCCCCC(=O)NO)C(=O)c1ccccc1O2 [Example 13, 6-(8-Methoxy-11-oxo-11H-dibenzo[b,f][1,4]oxazepin-10-yl)-hexanoic acid hydroxyamide]
% inhib at 0.1 μM [1]: 73%
IC50 [2]: 310 nM

COc1ccc2c(c1)Nc1ccccc1N(CCCCCC(=O)NO)S2(=O)=O [Example 30, 6-(7-Methoxy-10,10-dioxo-5,10-dihydro-10λ^6-thia-5,11-diaza-dibenzo[a,d]cyclohepten-11-yl)-hexanoic acid hydroxyamide]
% inhib at 0.1 μM [1]: 65%
IC50 [2]: 390 nM

COc1ccc2c(c1)N(CCCCCC(=O)NO)C(=O)c1ccccc1S2(=O)=O [Example 9, 6-(8-Methoxy-5,5,11-trioxo-5,11-dihydro-5λ^6-dibenzo[b,f][1,4]thiazepin-10-yl)-hexanoic acid hydroxyamide]
% inhib at 0.1 μM [1]: 83%
IC50 [2]: 40 nM

COc1ccc2c(c1)N(CCCCCC(=O)NO)S(=O)(=O)c1ccccc1N2 [Example 29, 6-(2-Methoxy-10,10-dioxo-5,10-dihydro-10λ^6-thia-5,11-diaza-dibenzo[a,d]cyclohepten-11-yl)-hexanoic acid hydroxyamide]
% inhib at 0.1 μM [1]: 54%
IC50 [2]: 900 nM
